Measured values taken from patent US7902252B2, “Inhibitors of D-amino acid oxidase” (Sepracor, Inc., priority 2007, dated 2011).

Key:
[1] = tested on: D-serine levels in the cerebellum; experiment: In vivo elevation of D-serine levels in the cerebellum; parameters: species or system Mice (C57BL/6); conditions: mice, intraperitoneal;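 note: Cutoffs are cerebellum D-serine in nmol/g wet tissue weight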
Method: […] Animals are sacrificed at either 2 or 6 h post compound administration with an N=3 per time point. At sacrifice, trunk blood is collected into tubes containing potassium EDTA, which are then centrifuged to permit isolation of plasma. The cerebellum is dissected from each animal. Plasma and cerebellum samples are stored at −80° C. until samples are analyzed (LC/MS/MS).

Human DAAO = Human DAAO (Homo sapiens, UniProt P14920); experiment: D-Amino Acid Oxidase enzyme assay (D-serine, horseradish peroxidase/Amplex Red coupled fluorescence); format: biochemical; conditions: D-serine 5 mM, pH 7.4
Summary of the method: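 D-serine substrate at 5 mM (Km), 50 mM sodium phosphate pH 7.4; H2O2 output coupled via 4 U/mL horseradish peroxidase and 50 μM Amplex Red to resorufin fluorescence. Reaction started with enzyme; H2O2 control checked coupling interference; IC50 from inhibition curves.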

Human DAAO, sequence (P14920 whole entry): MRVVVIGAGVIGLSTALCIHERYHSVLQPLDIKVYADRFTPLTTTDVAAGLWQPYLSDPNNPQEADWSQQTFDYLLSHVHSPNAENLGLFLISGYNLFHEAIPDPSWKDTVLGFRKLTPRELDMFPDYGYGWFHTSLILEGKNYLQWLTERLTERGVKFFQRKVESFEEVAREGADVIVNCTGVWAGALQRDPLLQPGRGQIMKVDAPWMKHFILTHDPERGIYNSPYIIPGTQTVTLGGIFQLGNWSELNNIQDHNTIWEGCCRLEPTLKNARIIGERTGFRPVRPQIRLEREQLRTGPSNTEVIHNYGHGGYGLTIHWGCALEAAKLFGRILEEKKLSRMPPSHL

Row | SMILES | Cerebellum D-serine at 2 hours ([1]; dose 30 mg/kg) | Cerebellum D-serine at 6 hours ([1]; dose 30 mg/kg) | IC50 (Human DAAO) | other results
1 | O=C(O)c1cc2c([nH]1)CCC2Cc1ccc(F)cc1 (racemic) [Compound 39, 4-(4-fluorobenzyl)-1,4,5,6-tetrahydrocyclopenta[b]pyrrole-2-carboxylic acid] | (+) (2.5-4.9 = (+)) | (+) (2.5-4.9 = (+)) | ≤ 0.1 µM | –
2 | O=C(O)c1cc2c([nH]1)CCC2Cc1ccc2ccccc2c1 (racemic) [Compound 78, 4-(naphthalen-2-ylmethyl)-1,4,5,6-tetrahydrocyclopenta[b]pyrrole-2-carboxylic acid] | (+) (2.5-4.9 = (+)) | (+) (2.5-4.9 = (+)) | ≤ 0.1 µM | –
3 | O=C(O)c1cc2c([nH]1)C[C@@H]1C[C@H]21 (racemic) [Compound 138, ±(1aS,5aS)-1a,4,5,5a-tetrahydro-1H-4-aza-cyclopropa[α]pentalene-3-carboxylic acid] | – | – | ≤ 0.1 µM | Cerebellum D-serine at 2 hours ([1]; dose 60 mg/kg): (++) (>5 = (++)); Cerebellum D-serine at 6 hours ([1]; dose 60 mg/kg): (++) (>5 = (++))
4 | CCCC1CCc2[nH]c(C(=O)O)cc21 (single isomer, unassigned) [Compound 8, 4-propyl-1,4,5,6-tetrahydrocyclopenta[b]pyrrole-2-carboxylic acid] | (++) (>5 = (++)) | (+) (2.5-4.9 = (+)) | ≤ 0.1 µM | –
5 | O=C(O)c1cc2c([nH]1)CCC2Cc1ccc(F)c(F)c1 (single isomer, unassigned) [Compound 44, 4-(3,4-difluorobenzyl)-1,4,5,6-tetrahydrocyclopenta[b]pyrrole-2-carboxylic acid] | (+) (2.5-4.9 = (+)) | (+) (2.5-4.9 = (+)) | ≤ 0.1 µM | –
6 | O=C(O)c1cc2c([nH]1)CCC2Cc1ccc(F)cc1F (single isomer, unassigned) [Compound 47, 4-(2,4-difluorobenzyl)-1,4,5,6-tetrahydrocyclopenta[b]pyrrole-2-carboxylic acid] | (++) (>5 = (++)) | (+) (2.5-4.9 = (+)) | ≤ 0.1 µM | –
7 | O=C(O)c1cc2c([nH]1)CCC2Cc1ccc(F)c(Cl)c1 (single isomer, unassigned) [Compound 50, 4-(3-chloro-4-fluorobenzyl)-1,4,5,6-tetrahydrocyclopenta[b]pyrrole-2-carboxylic acid] | (++) (>5 = (++)) | (+) (2.5-4.9 = (+)) | – | –
8 | Cc1cc(F)ccc1CC1CCc2[nH]c(C(=O)O)cc21 (single isomer, unassigned) [Compound 53, 4-(4-fluoro-2-methylbenzyl)-1,4,5,6-tetrahydrocyclopenta[b]pyrrole-2-carboxylic acid] | – | – | ≤ 0.1 µM | Cerebellum D-serine at 2 hours ([1]; dose 10 mg/kg): (+) (2.5-4.9 = (+)); Cerebellum D-serine at 6 hours ([1]; dose 10 mg/kg): (−) (<2.5 = (−))
9 | O=C(O)c1cc2c([nH]1)CCC2Cc1ccc(Cl)c(Cl)c1 (single isomer, unassigned) [Compound 59, 4-(3,4-dichlorobenzyl)-1,4,5,6-tetrahydrocyclopenta[b]pyrrole-2-carboxylic acid] | – | – | ≤ 0.1 µM | Cerebellum D-serine at 2 hours ([1]; dose 10 mg/kg): (+) (2.5-4.9 = (+)); Cerebellum D-serine at 6 hours ([1]; dose 10 mg/kg): (+) (2.5-4.9 = (+))
10 | O=C(O)c1cc2c([nH]1)CCC2Cc1ccc(Br)cc1 (single isomer, unassigned) [Compound 62, 4-(4-bromobenzyl)-1,4,5,6-tetrahydrocyclopenta[b]pyrrole-2-carboxylic acid] | (+) (2.5-4.9 = (+)) | (++) (>5 = (++)) | ≤ 0.1 µM | –
11 | O=C(O)c1cc2c([nH]1)CCC2Cc1cccc(Br)c1 (single isomer, unassigned) [Compound 64, 4-(3-bromobenzyl)-1,4,5,6-tetrahydrocyclopenta[b]pyrrole-2-carboxylic acid] | – | – | ≤ 0.1 µM | Cerebellum D-serine at 2 hours ([1]; dose 60 mg/kg): (−) (<2.5 = (−))
12 | O=C(O)c1cc2c([nH]1)CCC2Cc1cccc(Br)c1 (single isomer, unassigned) [Compound 65, 4-(3-bromobenzyl)-1,4,5,6-tetrahydrocyclopenta[b]pyrrole-2-carboxylic acid] | (++) (>5 = (++)) | (+) (2.5-4.9 = (+)) | ≤ 100 µM | –
13 | COc1cccc(CC2CCc3[nH]c(C(=O)O)cc32)c1 (single isomer, unassigned) [Compound 68, 4-(3-methoxybenzyl)-1,4,5,6-tetrahydrocyclopenta[b]pyrrole-2-carboxylic acid] | (+) (2.5-4.9 = (+)) | (+) (2.5-4.9 = (+)) | ≤ 0.1 µM | –
14 | O=C(O)c1cc2c([nH]1)CCC2Cc1ccc2ccccc2c1 (single isomer, unassigned) [Compound 80, 4-(naphthalen-2-ylmethyl)-1,4,5,6-tetrahydrocyclopenta[b]pyrrole-2-carboxylic acid] | (+) (2.5-4.9 = (+)) | (+) (2.5-4.9 = (+)) | ≤ 0.1 µM | –
15 | O=C(O)c1cc2c([nH]1)CCC2Cc1cccc(-c2ccco2)c1 (single isomer, unassigned) [Compound 89, 4-(3-(furan-2-yl)benzyl)-1,4,5,6-tetrahydrocyclopenta[b]pyrrole-2-carboxylic acid] | (−) (<2.5 = (−)) | – | ≤ 0.1 µM | –
16 | O=C(O)c1cc2c([nH]1)CCC2Cc1cccc(-c2ccc[nH]2)c1 (single isomer, unassigned) [Compound 93, 4-(3-(1H-pyrrol-2-yl)benzyl)-1,4,5,6-tetrahydrocyclopenta[b]pyrrole-2-carboxylic acid] | (+) (2.5-4.9 = (+)) | (+) (2.5-4.9 = (+)) | ≤ 0.1 µM | –
17 | O=C(O)c1cc2c([nH]1)CCC2c1cccc(F)c1 (single isomer, unassigned) [Compound 96, 4-(3-fluorophenyl)-1,4,5,6-tetrahydrocyclopenta[b]pyrrole-2-carboxylic acid] | (+) (2.5-4.9 = (+)) | (+) (2.5-4.9 = (+)) | ≤ 0.1 µM | –
18 | O=C(O)c1cc2c([nH]1)CCC2c1cc(F)cc(F)c1 (single isomer, unassigned) [Compound 100, 4-(3,5-difluorophenyl)-1,4,5,6-tetrahydrocyclopenta[b]pyrrole-2-carboxylic acid] | (+) (2.5-4.9 = (+)) | (+) (2.5-4.9 = (+)) | ≤ 0.1 µM | –
19 | O=C(O)c1cc2c([nH]1)C(Cc1cccc(Cl)c1)CC2 (single isomer, unassigned) [Compound 123, 6-(3-chlorobenzyl)-1,4,5,6-tetrahydrocyclopenta[b]pyrrole-2-carboxylic acid] | (+) (2.5-4.9 = (+)) | (+) (2.5-4.9 = (+)) | ≤ 0.1 µM | –
20 | O=C(O)c1cc2c([nH]1)C(c1cccc(Br)c1)CC2 (stereo not drawn) [Compound 115, 6-(3-bromophenyl)-1,4,5,6-tetrahydrocyclopenta[b]pyrrole-2-carboxylic acid] | – | – | ≤ 1 µM | –
21 | Cc1ccc(C2CCc3cc(C(=O)O)[nH]c32)cc1 (stereo not drawn) [Compound 116, 6-p-tolyl-1,4,5,6-tetrahydrocyclopenta[b]pyrrole-2-carboxylic acid] | – | – | ≤ 1 µM | –
22 | N#Cc1cccc(C2CCc3cc(C(=O)O)[nH]c32)c1 (stereo not drawn) [Compound 117, 6-(3-cyanophenyl)-1,4,5,6-tetrahydrocyclopenta[b]pyrrole-2-carboxylic acid] | – | – | ≤ 1 µM | –
23 | O=C(O)c1cc2c([nH]1)C(Cc1cccc(O)c1)CC2 (stereo not drawn) [Compound 128, 6-(3-hydroxybenzyl)-1,4,5,6-tetrahydrocyclopenta[b]pyrrole-2-carboxylic acid] | – | – | ≤ 0.1 µM | –
24 | O=C(O)c1cc2c([nH]1)C(CCc1cccc3ccccc13)CC2 (stereo not drawn) [Compound 132, 6-(2-(naphthalen-1-yl)ethyl)-1,4,5,6-tetrahydrocyclopenta[b]pyrrole-2-carboxylic acid] | – | – | ≤ 1 µM | –
25 | O=C(O)c1cc2c([nH]1)C(Cc1ccc(-c3ccccc3)cc1)CC2 (stereo not drawn) [Compound 133, 6-(biphenyl-4-ylmethyl)-1,4,5,6-tetrahydrocyclopenta[b]pyrrole-2-carboxylic acid] | – | – | ≤ 1 µM | –
26 | O=C(O)c1[nH]c2c(c1Br)[C@H]1C[C@H]1C2 [Compound 145, (1aS,5aS)-1a,4,5,5a-tetrahydro-1H-2-bromo-4-aza-cyclopropa[α]pentalene-3-carboxylic acid] | – | – | ≤ 100 µM | –
27 | O=C(O)c1[nH]c2c(c1Br)C(CCc1ccccc1)CC2 (stereo not drawn) [Compound 147, 3-bromo-4-phenethyl-1,4,5,6-tetrahydrocyclopenta[b]pyrrole-2-carboxylic acid] | – | – | ≤ 1 µM | –
28 | COC1c2cc(C(=O)O)[nH]c2CC1(F)F (stereo not drawn) [Compound 148, 5,5-difluoro-4-methoxy-1,4,5,6-tetrahydrocyclopenta[b]pyrrole-2-carboxylic acid] | – | – | ≤ 100 µM | –
